# Test: Example 12: 3-APS concentration in cerebrospinal fluid of CAA patients
# Type: in vivo
# Details: human, oral, 5 hours post-dose on Week 12, range of means, CSF samples from five patients, some below lower limit of quantitation, read-out: mean concentrations of 3-APS in the cerebrospinal fluid (CSF)
# Experimental: A total of 24 patients who have had lobar cerebral hemorrhage are randomized to receive in a 1:1:1 ratio 3-APS 50, 100 or 150 mg BID for 12 weeks. A lumbar puncture is performed on an optional basis at Weeks 0 and 12 to assess the pharmacological effect of 3-APS on Aβ40, Aβ42 and tau concentrations in cerebrospinal fluid (CSF) and to measure the drug concentration in the CSF. Rating instruments (NIHSS, Barthel Index, ADAS-cog and EXIT25) are administered at Weeks 0 and 12 to evaluate the neurological and cognitive functions as well as the daily functioning.
# For pharmacokinetic investigations, blood samples are collected from each patient prior to dosing and at specified time points through 12 h post-dose after the first dose (Week 0) and the last dose (Week 12). Blood samples are also collected prior to the first dose of the day during Week 2, 4 and 8 visits. CSF samples are obtained by lumbar puncture prior to dosing on Week 0 and approximately 5 hours post-dose on Week 12.
# The mean concentrations of 3-APS in the cerebrospinal fluid (CSF) 5 hours post-dose on Week 12 range from 3.28 to 4.10 ng/mL confirming that the central nervous system is exposed to the drug.
smiles,measurement,value
"NCCCS(=O)(=O)O [3-APS, 3-amino-1-propanesulfonic acid]",concentration at 5 h,3.28 to 4.1 ng/mL

# From patent publication US20060251714A1, “Pharmaceutical formulations of amyloid inhibiting compounds” (priority 2005, published 2006)
